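A five-concentration, 48-hour dose response in 96-well plates underlies each endpoint, interpolated linearly between surrounding concentrations. GI50 is the concentration that inhibits growth by half. TGI is the concentration that stops growth completely.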
Columns and labels:
Test in all cases: NCI-60 cell line screen, 48 h
786-0 renal = tested on: 786-0 renal
A498 renal = tested on: A498 renal
A549 NSCLC = tested on: A549 NSCLC
ACHN renal = tested on: ACHN renal
BT-549 breast = tested on: BT-549 breast
CAKI-1 renal = tested on: CAKI-1 renal
CCRF-CEM leukemia = tested on: CCRF-CEM leukemia
COLO 205 colon = tested on: COLO 205 colon
DU-145 prostate = tested on: DU-145 prostate
HCC-2998 colon = tested on: HCC-2998 colon
HCT-116 colon = tested on: HCT-116 colon
HCT-15 colon = tested on: HCT-15 colon
HL-60(TB) leukemia = tested on: HL-60(TB) leukemia
HOP-62 NSCLC = tested on: HOP-62 NSCLC
HOP-92 NSCLC = tested on: HOP-92 NSCLC
HS 578T breast = tested on: HS 578T breast
HT29 colon = tested on: HT29 colon
IGROV1 ovarian = tested on: IGROV1 ovarian
K-562 leukemia = tested on: K-562 leukemia
KM12 colon = tested on: KM12 colon
LOX IMVI melanoma = tested on: LOX IMVI melanoma
M14 melanoma = tested on: M14 melanoma
MALME-3M melanoma = tested on: MALME-3M melanoma
MCF7 breast = tested on: MCF7 breast
MDA-MB-231 breast = tested on: MDA-MB-231 breast
MDA-MB-435 = tested on: MDA-MB-435
MOLT-4 leukemia = tested on: MOLT-4 leukemia
NCI-H226 lung = tested on: NCI-H226 lung
NCI-H23 lung = tested on: NCI-H23 lung
NCI-H460 lung = tested on: NCI-H460 lung
NCI-H522 lung = tested on: NCI-H522 lung
NCI/ADR-RES ovarian = tested on: NCI/ADR-RES ovarian
OVCAR-3 ovarian = tested on: OVCAR-3 ovarian
OVCAR-4 ovarian = tested on: OVCAR-4 ovarian
OVCAR-5 ovarian = tested on: OVCAR-5 ovarian
OVCAR-8 ovarian = tested on: OVCAR-8 ovarian
PC-3 prostate = tested on: PC-3 prostate
RPMI-8226 leukemia = tested on: RPMI-8226 leukemia
RXF 393 renal = tested on: RXF 393 renal
SF-268 CNS = tested on: SF-268 CNS
SF-295 CNS = tested on: SF-295 CNS
SF-539 CNS = tested on: SF-539 CNS
SK-MEL-2 melanoma = tested on: SK-MEL-2 melanoma
SK-MEL-28 melanoma = tested on: SK-MEL-28 melanoma
SK-MEL-5 melanoma = tested on: SK-MEL-5 melanoma
SK-OV-3 ovarian = tested on: SK-OV-3 ovarian
SN12C renal = tested on: SN12C renal
SNB-19 CNS = tested on: SNB-19 CNS
SNB-75 CNS = tested on: SNB-75 CNS
SR leukemia = tested on: SR leukemia
SW-620 colon = tested on: SW-620 colon
T-47D breast = tested on: T-47D breast
TK-10 renal = tested on: TK-10 renal
U251 CNS = tested on: U251 CNS
UACC-257 melanoma = tested on: UACC-257 melanoma
UACC-62 melanoma = tested on: UACC-62 melanoma
UO-31 renal = tested on: UO-31 renal

N#Cc1c(C(=O)c2ccccc2)cnn1-c1ccccc1
GI50 (786-0 renal): > 25 µM | TGI (786-0 renal): > 25 µM | GI50 (A498 renal): > 25 µM | TGI (A498 renal): > 25 µM | GI50 (A549 NSCLC): > 25 µM | TGI (A549 NSCLC): > 25 µM | GI50 (ACHN renal): > 25 µM | TGI (ACHN renal): > 25 µM | GI50 (BT-549 breast): > 25 µM | TGI (BT-549 breast): > 25 µM | GI50 (CAKI-1 renal): > 25 µM | TGI (CAKI-1 renal): > 25 µM | GI50 (CCRF-CEM leukemia): > 25 µM | TGI (CCRF-CEM leukemia): > 25 µM | GI50 (COLO 205 colon): > 25 µM | TGI (COLO 205 colon): > 25 µM | GI50 (DU-145 prostate): > 25 µM | TGI (DU-145 prostate): > 25 µM | GI50 (HCC-2998 colon): > 25 µM | TGI (HCC-2998 colon): > 25 µM | GI50 (HCT-116 colon): > 25 µM | TGI (HCT-116 colon): > 25 µM | GI50 (HCT-15 colon): > 25 µM | TGI (HCT-15 colon): > 25 µM | GI50 (HL-60(TB) leukemia): > 25 µM | TGI (HL-60(TB) leukemia): > 25 µM | GI50 (HOP-62 NSCLC): > 25 µM | TGI (HOP-62 NSCLC): > 25 µM | GI50 (HOP-92 NSCLC): > 25 µM | TGI (HOP-92 NSCLC): > 25 µM | GI50 (HS 578T breast): > 25 µM | TGI (HS 578T breast): > 25 µM | GI50 (HT29 colon): > 25 µM | TGI (HT29 colon): > 25 µM | GI50 (IGROV1 ovarian): > 25 µM | TGI (IGROV1 ovarian): > 25 µM | GI50 (K-562 leukemia): > 25 µM | TGI (K-562 leukemia): > 25 µM | GI50 (KM12 colon): > 25 µM | TGI (KM12 colon): > 25 µM | GI50 (LOX IMVI melanoma): > 25 µM | TGI (LOX IMVI melanoma): > 25 µM | GI50 (M14 melanoma): > 25 µM | TGI (M14 melanoma): > 25 µM | GI50 (MALME-3M melanoma): > 25 µM | TGI (MALME-3M melanoma): > 25 µM | GI50 (MCF7 breast): > 25 µM | TGI (MCF7 breast): > 25 µM | GI50 (MDA-MB-231 breast): > 25 µM | TGI (MDA-MB-231 breast): > 25 µM | GI50 (MDA-MB-435): > 25 µM | TGI (MDA-MB-435): > 25 µM | GI50 (MOLT-4 leukemia): > 25 µM | TGI (MOLT-4 leukemia): > 25 µM | GI50 (NCI-H226 lung): > 25 µM | TGI (NCI-H226 lung): > 25 µM | GI50 (NCI-H23 lung): > 25 µM | TGI (NCI-H23 lung): > 25 µM | GI50 (NCI-H460 lung): > 25 µM | TGI (NCI-H460 lung): > 25 µM | GI50 (NCI-H522 lung): > 25 µM | TGI (NCI-H522 lung): > 25 µM | GI50 (NCI/ADR-RES ovarian): > 25 µM | TGI (NCI/ADR-RES ovarian): > 25 µM | GI50 (OVCAR-3 ovarian): > 25 µM | TGI (OVCAR-3 ovarian): > 25 µM | GI50 (OVCAR-4 ovarian): > 25 µM | TGI (OVCAR-4 ovarian): > 25 µM | GI50 (OVCAR-5 ovarian): > 25 µM | TGI (OVCAR-5 ovarian): > 25 µM | GI50 (OVCAR-8 ovarian): > 25 µM | TGI (OVCAR-8 ovarian): > 25 µM | GI50 (PC-3 prostate): > 25 µM | TGI (PC-3 prostate): > 25 µM | GI50 (RPMI-8226 leukemia): > 25 µM | TGI (RPMI-8226 leukemia): > 25 µM | GI50 (RXF 393 renal): > 25 µM | TGI (RXF 393 renal): > 25 µM | GI50 (SF-268 CNS): > 25 µM | TGI (SF-268 CNS): > 25 µM | GI50 (SF-295 CNS): > 25 µM | TGI (SF-295 CNS): > 25 µM | GI50 (SF-539 CNS): > 25 µM | TGI (SF-539 CNS): > 25 µM | GI50 (SK-MEL-2 melanoma): > 25 µM | TGI (SK-MEL-2 melanoma): > 25 µM | GI50 (SK-MEL-28 melanoma): > 25 µM | TGI (SK-MEL-28 melanoma): > 25 µM | GI50 (SK-MEL-5 melanoma): > 25 µM | TGI (SK-MEL-5 melanoma): > 25 µM | GI50 (SK-OV-3 ovarian): > 25 µM | TGI (SK-OV-3 ovarian): > 25 µM | GI50 (SN12C renal): > 25 µM | TGI (SN12C renal): > 25 µM | GI50 (SNB-19 CNS): > 25 µM | TGI (SNB-19 CNS): > 25 µM | GI50 (SNB-75 CNS): > 25 µM | TGI (SNB-75 CNS): > 25 µM | GI50 (SR leukemia): > 25 µM | TGI (SR leukemia): > 25 µM | GI50 (SW-620 colon): > 25 µM | TGI (SW-620 colon): > 25 µM | GI50 (T-47D breast): > 25 µM | TGI (T-47D breast): > 25 µM | GI50 (TK-10 renal): > 25 µM | TGI (TK-10 renal): > 25 µM | GI50 (U251 CNS): > 25 µM | TGI (U251 CNS): > 25 µM | GI50 (UACC-257 melanoma): > 25 µM | TGI (UACC-257 melanoma): > 25 µM | GI50 (UACC-62 melanoma): > 25 µM | TGI (UACC-62 melanoma): > 25 µM | GI50 (UO-31 renal): > 25 µM | TGI (UO-31 renal): > 25 µM
